This is an account of results in ChEMBL document CHEMBL3233011, “Structural modifications of CH(OH)-DAPYs as new HIV-1 non-nucleoside reverse transcriptase inhibitors” (Bioorg Med Chem, 2014).

Usually EC50 stands for the concentration giving half of the maximal effect. As usually defined, the CC50 is the concentration at which the toxic effect on the cells reaches its halfway point. Higher therefore signals better tolerance by the cells. As usually defined, the IC50 is the concentration at which inhibition is half-maximal. A higher IC50 goes with weaker potency.

Data set [1] deals with Human immunodeficiency virus 1. In words: Antiviral activity against HIV1 3B infected in human MT4 cells assessed as inhibition of viral cytopathogenicity after 5 days by MTT assay. Format: functional, organism-based. To be noted: Human immunodeficiency virus 1, 3B, MT4, 120 h. Background: Damage to the host cells serves as the signal in cytopathic effect assays.
Data set [2] deals with Human immunodeficiency virus 2. In words: Antiviral activity against HIV2 ROD infected in human MT4 cells assessed as inhibition of viral cytopathogenicity after 5 days by MTT assay. Format: functional, organism-based. To be noted: Human immunodeficiency virus 2, ISOLATE ROD, MT4, 120 h.
Data set [3] in a line: Cytotoxicity against mock-infected human MT4 cells after 5 days by MTT assay. In kind it is cell-based. Background: Tetrazolium assays rely on reduction of a dye to a coloured formazan, in cell work by metabolically active cells.
Data set [4] concerns Human immunodeficiency virus 1. In words: Antiviral activity against HIV1 harboring RT K103N/Y181C double mutant infected in human MT4 cells assessed as inhibition of viral cytopathogenicity after 5 days by MTT assay. Conditions: Human immunodeficiency virus 1, MT4, 120 h. In kind it is functional, organism-based.
For data set [5], the target named is Human immunodeficiency virus type 1 reverse transcriptase (Human immunodeficiency virus 1, UniProt Q72547). In words: Inhibition of wild-type HIV1 reverse transcriptase p66/p51 after 40 mins by spectrophotometry.
For data set [6], the system named is Human immunodeficiency virus 1. In words: Ratio of nevirapine EC50 to compound EC50 for HIV1 3B infected in human MT4 cells. Format: functional.
Data set [7] relates to Human immunodeficiency virus 1. As to the kind of experiment: Ratio of delaviridine EC50 to compound EC50 for HIV1 3B infected in human MT4 cells. In kind it is functional.

Take `COc1ccc(C(C)(O)c2ccnc(Nc3ccc(C#N)cc3)n2)cc1` (configuration not stated): the EC50 is 0.346 µM in data set [1], over 35.9 µM in data set [2] and over 35.9 µM in data set [4]. This molecule displayed a CC50 at 120 h in data set [3] of 35.9 µM.

As for `CC(C)(C)c1ccc(C(C)(O)c2ccnc(Nc3ccc(C#N)cc3)n2)cc1` (configuration not stated), the EC50 in data set [1] is 0.564 µM; in data set [2] it was over 31.8 µM; in data set [4], over 31.8 µM. For the same molecule, in data set [3], the CC50 at 120 h was found to be 31.8 µM.

As for `CC(O)(c1ccccc1)c1ccnc(Nc2ccc(C#N)cc2)n1` (configuration not stated), the IC50 in data set [5] is 2 µM. For the same molecule, the EC50 in data set [1] was 0.288 µM; in data set [2] it was over 45.4 µM; in data set [4], over 45.4 µM. This molecule yielded a cytotoxic concentration (CC50) at 120 h in data set [3] of 45.4 µM.

For `Cc1ccc(C(C)(O)c2ccnc(Nc3ccc(C#N)cc3)n2)cc1` (configuration not stated), the “Ratio EC50” value in data set [6] and in data set [7] was 2 throughout. This molecule also showed an IC50 in data set [5] of 0.16 µM. For the same molecule, the EC50 in data set [1] is 0.067 µM; in data set [2] it was over 39.9 µM; in data set [4], over 39.9 µM. In data set [3], this molecule came in with a CC50 at 120 h of 39.3 µM.

For `CC(O)(c1ccc(F)cc1)c1ccnc(Nc2ccc(C#N)cc2)n1` (configuration not stated), the results for the 50% effective concentration (EC50) in data set [1], in data set [2] and in data set [4] were 2.5 µM, over 43.1 µM and over 43.1 µM, respectively. In data set [3], this molecule yielded a cytotoxic concentration (CC50) at 120 h of 43.1 µM.

Consider `CC(O)(c1ccc(Cl)cc1)c1ccnc(Nc2ccc(C#N)cc2)n1` (configuration not stated), for which the EC50 in data set [1] was 0.317 µM; in data set [2] it was over 39 µM; in data set [4], over 39 µM. The CC50 at 120 h in data set [3] turned out to be 39 µM.

With `CC(O)(c1ccc(Br)cc1)c1ccnc(Nc2ccc(C#N)cc2)n1` (configuration not stated), the values for the half-maximal effective concentration (EC50) in data set [1], in data set [2] and in data set [4] were 0.305 µM, over 28.2 µM and over 28.2 µM, respectively. In data set [3], this molecule registered a CC50 at 120 h of 28.2 µM.

In data set [5], `CC(O)(c1cccc(F)c1)c1ccnc(Nc2ccc(C#N)cc2)n1` (configuration not stated) registered an IC50 of 0.63 µM. Further, the EC50 in data set [1] was 0.201 µM; in data set [2], over 49.6 µM; in data set [4], over 53.2 µM. In data set [3], this molecule yielded a CC50 at 120 h of 53.2 µM.

As to `CC(O)(c1cccc(Cl)c1)c1ccnc(Nc2ccc(C#N)cc2)n1` (configuration not stated), the EC50 was 0.257 µM in data set [1], over 37.5 µM in data set [2] and over 37.5 µM in data set [4]. Also, the CC50 at 120 h in data set [3] turned out to be 37.5 µM.

As for `CC(O)(c1cccc(Br)c1)c1ccnc(Nc2ccc(C#N)cc2)n1` (configuration not stated), in data set [5], the IC50 came to 0.39 µM. The EC50 in data set [1] was 0.191 µM; in data set [2], over 33.7 µM; in data set [4], over 33.7 µM. In addition, in data set [3], it took 33.7 µM to reach half-maximal cytotoxicity (CC50 at 120 h).

With `Cc1cnc(Nc2ccc(C#N)cc2)nc1C(C)(O)c1ccc(F)cc1` (configuration not stated), the EC50 in data set [1] and in data set [2] was over 61.5 µM throughout. In data set [3], this molecule came in with a CC50 at 120 h of 61.5 µM.

`Cc1cc(C(C)(O)c2ccc(F)cc2)nc(Nc2ccc(C#N)cc2)n1` (configuration not stated): the EC50 in data set [1] is 3.55 µM; in data set [2], over 38.2 µM; in data set [4] it was over 38.2 µM. In addition, in data set [3], it took 38.2 µM to reach half-maximal cytotoxicity (CC50 at 120 h).

For the molecule `CC(O)(c1ccnc(Nc2ccc(C#N)cc2)n1)c1cccc2ccccc12` (configuration not stated), the EC50 was 0.388 µM in data set [1], over 30.7 µM in data set [2] and over 30.7 µM in data set [4]. This molecule also had a CC50 at 120 h in data set [3] of 30.7 µM.

In the case of `C=CC(O)(c1ccc(Br)cc1)c1ccnc(Nc2ccc(C#N)cc2)n1` (configuration not stated), the EC50 in data set [1] was 0.355 µM; in data set [2], over 31.7 µM; in data set [4], over 31.7 µM. Moreover, the CC50 at 120 h in data set [3] is 31.7 µM.

As for `CCC(O)(c1ccc(Br)cc1)c1ccnc(Nc2ccc(C#N)cc2)n1` (configuration not stated), the figures for the 50% effective concentration (EC50) in data set [1], in data set [2] and in data set [4] were 2.07 µM, over 31.3 µM and over 31.3 µM, respectively. In data set [3], the CC50 at 120 h is 31.3 µM.

Take `N#Cc1ccc(Nc2nccc(C(O)(c3ccc(Br)cc3)C3CC3)n2)cc1` (configuration not stated): the EC50 was 3.11 µM in data set [1], over 33.2 µM in data set [2] and over 33.2 µM in data set [4]. Besides, it took 33.2 µM to reach half-maximal cytotoxicity in data set [3] (CC50 at 120 h).

On to `Cc1cnc(Nc2ccc(C#N)cc2)nc1C(C)(O)c1ccc(C(C)(C)C)cc1` (configuration not stated), for which the EC50 in data set [1] is 7.21 µM; in data set [2] it was over 31.1 µM; in data set [4], over 31.1 µM. In data set [3], the midpoint of cytotoxicity, the CC50 at 120 h, lay at 31.1 µM.

Turning to `Cc1cc(C(C)(O)c2ccc(C(C)(C)C)cc2)nc(Nc2ccc(C#N)cc2)n1` (configuration not stated), the EC50 is 1.25 µM in data set [1], over 30.4 µM in data set [2] and over 30.4 µM in data set [4]. In data set [3], this molecule gave a CC50 at 120 h of 30.4 µM.

`CC(C)Nc1cccnc1N1CCN(C(=O)c2cc3cc(NS(C)(=O)=O)ccc3[nH]2)CC1` [DELAVIRDINE]: the EC50 was 0.81 µM in data set [1] and over 43.8 µM in data set [4]. Also, the CC50 at 120 h in data set [3] was over 43.8 µM.

Regarding `O=C1Nc2ccc(Cl)cc2[C@@](C#CC2CC2)(C(F)(F)F)O1` [EFAVIRENZ], the EC50 in data set [1] worked out at 0.022 µM. Besides, the CC50 at 120 h in data set [3] is over 6.3 µM.

For the molecule `Cc1cc(C#N)cc(C)c1Oc1nc(Nc2ccc(C#N)cc2)nc(N)c1Br` [ETRAVIRINE], the EC50 in data set [2] was over 27.8 µM.

Turning to `Cc1ccnc2c1NC(=O)c1cccnc1N2C1CC1` [NEVIRAPINE], the CC50 at 120 h in data set [3] is over 15 µM. In addition, the EC50 in data set [4] is 0.901 µM.

In data set [3], `Cc1cn([C@H]2C[C@H](N=[N+]=[N-])[C@@H](CO)O2)c(=O)[nH]c1=O` [ZIDOVUDINE] came in with a CC50 at 120 h of over 93.6 µM. Besides, the EC50 in data set [4] is 0.008 µM.
